Key:
RPMI 8226 = experiment: Anti-proliferative activity, 96 hours; details: Homo sapiens, RPMI-8226, 96 h
[1] = test system: IKZF1, IKZF3, IRF-1, IRF-4 and Caspase-3; experiment: KI-JK ALCL tumor protein expression, western blot (Example 20); type: in vivo, mice; details: 100 μg/kg PO
Experimental: A second xenograft study was conducted in female NOD SCID mice bearing KI-JK ALCL tumors. […] Once tumors reached a mean tumor volume (MTV) of 450 mm^3 they were stratified into two groups.
For the vehicle control group, 2 mice were sacrificed, and tumors harvested 24 hours post a single dose. Mice in the Compound 1 group were sampled at 4- and 24-hours post dose a single dose, with two tumors collected per time point. Additional mice were dosed daily for 5 or 7 days with tumor collections 24 hours post last dose, with 2 mice sampled per time point. Tumors were then mechanically homogenized, and protein extracted using RIPA buffer (Sigma Aldrich). Protein concentration was quantified using a Pierce™ BCA Protein Assay Kit, samples were reduced, and equal protein amounts were then loaded onto a western blot gel for analysis. Tumors were analyzed for IKZF1 (Invitrogen, PA5-23728), IKZF3 (CST, 15103), IRF-1 (CST, 8478), IFR-4 (CST, 15106), and Caspase-3 (CST, 9662) expression. […] Data is expressed as percentage of each target in comparison to the target level measured in the vehicle control and normalized to GAPDH levels to control for protein loading. Error bars represent ±SEM values.

[2] = target: T1, cereblon-NanoLuc fusion protein in 293T cells (Homo sapiens, UniProt Q96SW2); experiment: In-cell cereblon competition (NanoBRET tracer displacement); type: cell-based; details: 2 hours at 37° C.; read-out: IC50, 50% of the tracer displaced
T1 construct: expressed in transfected cells; host or cells: 293T cells, lentiviral

IKZF1 = target: T2, IKZF1 (Rattus norvegicus, UniProt A0A0G2JVD9); experiment: Ex vivo IKZF1 degradation in PBMC, rat; type: cell-based; details: rat cells
T2 construct: from tissue; host or cells: peripheral blood cells (PBMC) of rats, ex vivo
Experimental: IKZF1/3 are not degraded in mouse cells treated with thalidomide or its IMiD® analogs because of a single amino acid difference in mouse cereblon compared to human cereblon that causes steric hindrance and prevents recruitment of IKZF1/3. Ex vivo studies were performed in peripheral blood cells (PBMC) of mice, rats, dogs, and monkeys to identify relevant species for IND enabling-toxicity studies based on the degree of IKZF1 degradation by Compound 1. IKZF1 was not degraded in mouse or rat cells by Compound 1, thus, while rat could not be considered a pharmacologically relevant species for human risk assessment, it was chosen as the rodent species for toxicological studies because it is widely used in toxicity testing and a substantial historical toxicology database is available. […] Therefore, cynomolgus monkey was chosen for non-rodent toxicological studies.

[3] = test system: cutaneous T-cell lymphoma (CTCL) cell lines; experiment: Anti-cancer activity in CTCL cell lines; type: cell-based; details: three of four cell lines tested were responsive, read-out: mean IC50 among the responsive lines
Rec-1 = experiment: Anti-proliferative activity, 96 hours; details: Homo sapiens, Rec1, 96 h
[4] = Plasma PK and interconversion in monkeys; type: in vivo; details: monkey, Compound 1 60 μg/kg or 100 μg/kg PO
Experimental: Compound 1 was administered to a rat at a concentration of 30 mg/kg PO and monkeys at a concentration of either 60 μg/kg or 100 μg/kg PO. At the indicated timepoints shown in FIG. 25A and FIG. 25B, plasma samples were collected and the Cmax, half-life, and AUC0-inf were determined for both Compound 1 and a metabolite of Compound 1, Compound 14. The percent of Compound 14 was also determined (Table 13). PK values dose normalized to 1 mg/kg. FIG. 25A is a graph measuring the concentration of Compound 1 or Compound 14 over the course of 24 hours in monkeys administered 100 μg/kg or 60 μg/kg of Compound 1. FIG. 25B is a graph measuring the concentration of Compound 1 or Compound 14 over the course of 24 hours in a rat administered 30 mg/kg of Compound 1.

Mino = experiment: Anti-proliferative activity, 96 hours; details: Homo sapiens
[5] = test system: hematological cancer cell lines; experiment: Anti-proliferative activity in hematological cancer cell lines (whole panel); type: cell-based; details: in multiple cell lines, 96 hours
[6] = test system: 87 potential unintended molecular targets; experiment: In vitro binding or activity against 87 potential unintended molecular targets; details: 100 nM, 500× the free plasma exposure (Cmax) of maximum in vivo efficacy
[7] = test system: NCI-H929 multiple myeloma tumors; experiment: NCI-H929 multiple myeloma xenograft, NOD SCID mice (Example 31); type: in vivo
Experimental: Compound 1 was administered QD (every day) orally (PO). […]
For the NCI-H929 cells, the xenograft study was conducted in female NOD SCID mice bearing NCI-H929 multiple myeloma tumors.
After the dosing period, tumor growth was monitored for 45 days. […] After the initial 21 days of dosing, all Compound 1 groups were monitored for tumor growth. The 10 μg/kg group was removed from study on 39. The 30 μg/kg group tumors began to regrow, and PO daily dosing resumed starting on day 40 for an additional 23 days. Statistical analysis was performed using two-way analysis of variance (ANOVA). Data are expressed as MTV±SEM.

RPMI-8226 tumors = experiment: RPMI-8226 multiple myeloma xenograft, CB17 SCID mice (Example 13); type: in vivo
Experimental: Compound 1 efficacy in two multiple myeloma cell lines (NC-H929) and (RPMI-8226) was evaluated at four different doses: 3 μg/kg, 10 μg/kg, 30 μg/kg, and 100 μg/kg. Compound 1 was administered QD (every day) orally (PO). […]
(§1) Statistical analysis was performed using two-way analysis of variance (ANOVA). Data are expressed as MTV±SEM.

SU-DHL-5 = experiment: Anti-proliferative activity, 96 hours; details: Homo sapiens, SU-DHL-5, 96 h
LP-1 = experiment: Anti-proliferative activity, 96 hours; details: Homo sapiens, LP-1, 96 h
MM.1S = experiment: Anti-proliferative activity, 96 hours; details: Homo sapiens, MM1.S
TMD8 DLBCL tumors = experiment: TMD8 DLBCL xenograft, NOD SCID mice; type: in vivo
Experimental: A xenograft study was also conducted in female NOD SCID mice bearing TMD8 DLBCL tumors.
as §1

In the case of `O=C1CC[C@H](N2C(=O)c3cccc4c(Cc5ccc(CN6CCOCC6)cc5)ccc2c34)C(=O)N1` (single isomer, unassigned) [Compound 1], the IC50 (RPMI 8226) is reported as 0.698 nM, the “concentration of caspase-3 and IRF-1” value [1] is reported as “increased” and the “percentage of IKZF1, IKZF3, and IRF-4” value [1] is reported as “decreased”. The IC50 [2] was 0.4 nM, the IKZF1 degradation (IKZF1) was “not degraded” and the IC50 [3] was 30 nM. The IC50 (Rec-1) was 0.353 nM, the AUC(0-inf) ([4]; dose normalized to 1 mg/kg) was 1280 ng·h/mL and the Cmax ([4]; dose normalized to 1 mg/kg) was 83 ng/mL. For the same molecule, the half-life ([4]; read-out: T ½ (converted)) was 9 h, the IC50 (Mino) was 0.194 nM and the “more active than pomalidomide” value [5] was “more than 5,000 fold”. For the same molecule, the off-target inhibition [6] was “no targets inhibited >50%”, the “tumor volume versus pomalidomide 3000 μg/kg” value ([7]; 10, 30 and 100 μg/kg) was “reduced tumor volume more than pomalidomide” and the “Statistical Significance Compared to Vehicle” value ([7]; Dose Level (mg/kg) 10, PO QD) was <0.0001. The “Statistical Significance Compared to Vehicle” value ([7]; Dose Level (mg/kg) 30, PO QD) was <0.0001, the “Statistical Significance Compared to Vehicle” value ([7]; Dose Level (mg/kg) 100, PO QD) was <0.0001 and the “Statistical Significance Compared to Vehicle” value (RPMI-8226 tumors; 30 μg/kg PO QD) was 0.01. The “Statistical Significance Compared to Vehicle” value (RPMI-8226 tumors; 100 μg/kg PO QD) was 0.009, the IC50 (SU-DHL-5) was 6.37 nM and the IC50 (LP-1) was 0.642 nM. For the same molecule, the IC50 (MM.1S) was 0.036 nM, the “Statistical Significance Compared to Vehicle” value (TMD8 DLBCL tumors; 100 μg/kg PO daily) was <0.0001 and the tumor volume (TMD8 DLBCL tumors; Compound 1 100 μg/kg, pomalidomide 3000 μg/kg, 18 days) was “decreased”.

Source: patent US20230190760A1, “ADVANTAGEOUS THERAPIES FOR DISORDERS MEDIATED BY IKAROS OR AIOLOS” (C4 Therapeutics, Inc., priority 2020, published 2023)
